Test results taken from the NIST ThermoML archive (doi:10.1021/je5009125).

Assay: xn = mol fraction of the nth substance listed
Settings: Liquid; for viscosity: Vibrating wire viscometry; for mass density: Vibrating tube method

O=C=O [carbon dioxide] + O
Settings	mass density [kg/m3]	viscosity [mPa·s]
373.13 K, 70300 kPa, x1 = 0.0086	–	0.302
373.13 K, 96400 kPa, x1 = 0.0086	–	0.308
373.38 K, 70590 kPa, x1 = 0.0271	998.2	–
373.38 K, 100800 kPa, x1 = 0.0271	1010.3	–
373.42 K, 15090 kPa, x1 = 0.0086	967.8	–
373.42 K, 30180 kPa, x1 = 0.0086	974.6	–
373.42 K, 50280 kPa, x1 = 0.0086	983.2	–
373.42 K, 70390 kPa, x1 = 0.0086	991.5	–
373.42 K, 100710 kPa, x1 = 0.0086	1003.2	–
373.46 K, 30190 kPa, x1 = 0.0168	977.8	–
373.46 K, 50320 kPa, x1 = 0.0168	986.5	–
373.46 K, 70450 kPa, x1 = 0.0168	994.9	–
373.46 K, 100740 kPa, x1 = 0.0168	1006.7	–
374.09 K, 70300 kPa, x1 = 0.0271	–	0.309
374.09 K, 96400 kPa, x1 = 0.0271	–	0.318
397.88 K, 30100 kPa, x1 = 0.0168	–	0.233
397.88 K, 50200 kPa, x1 = 0.0168	–	0.238
397.88 K, 70200 kPa, x1 = 0.0168	–	0.244
397.88 K, 96300 kPa, x1 = 0.0168	–	0.25
397.98 K, 30100 kPa, x1 = 0.0086	–	0.231
397.98 K, 50200 kPa, x1 = 0.0086	–	0.236
397.98 K, 70300 kPa, x1 = 0.0086	–	0.242
397.98 K, 96400 kPa, x1 = 0.0086	–	0.248
398.48 K, 50470 kPa, x1 = 0.0271	970	–
398.48 K, 70600 kPa, x1 = 0.0271	979.3	–
398.48 K, 100800 kPa, x1 = 0.0271	992.1	–
398.55 K, 15060 kPa, x1 = 0.0086	948.3	–
398.55 K, 30170 kPa, x1 = 0.0086	955.6	–
398.55 K, 30190 kPa, x1 = 0.0168	958.2	–
398.55 K, 50290 kPa, x1 = 0.0086	964.9	–
398.55 K, 50330 kPa, x1 = 0.0168	967.8	–
398.55 K, 70390 kPa, x1 = 0.0086	973.7	–
398.55 K, 70460 kPa, x1 = 0.0168	976.7	–
398.55 K, 100710 kPa, x1 = 0.0086	986	–
398.55 K, 100730 kPa, x1 = 0.0168	989.4	–
398.98 K, 50200 kPa, x1 = 0.0271	–	0.241
398.98 K, 70200 kPa, x1 = 0.0271	–	0.245
398.98 K, 96300 kPa, x1 = 0.0271	–	0.254
422.91 K, 30000 kPa, x1 = 0.0168	–	0.192
422.91 K, 50100 kPa, x1 = 0.0168	–	0.196
422.91 K, 70200 kPa, x1 = 0.0168	–	0.202
422.91 K, 96200 kPa, x1 = 0.0168	–	0.208
423.82 K, 50200 kPa, x1 = 0.0271	–	0.198
423.82 K, 70300 kPa, x1 = 0.0271	–	0.204
423.82 K, 96500 kPa, x1 = 0.0271	–	0.21
423.84 K, 50460 kPa, x1 = 0.0271	948	–
423.84 K, 70580 kPa, x1 = 0.0271	958.1	–
423.84 K, 100810 kPa, x1 = 0.0271	972.1	–
423.92 K, 15070 kPa, x1 = 0.0086	925.9	–
423.92 K, 30180 kPa, x1 = 0.0086	934	–
423.92 K, 50300 kPa, x1 = 0.0086	944.2	–
423.92 K, 70420 kPa, x1 = 0.0086	953.8	–
423.92 K, 100710 kPa, x1 = 0.0086	967.1	–
423.93 K, 30200 kPa, x1 = 0.0168	935.7	–
423.93 K, 50340 kPa, x1 = 0.0168	946.2	–
423.93 K, 70460 kPa, x1 = 0.0168	956	–
423.93 K, 100730 kPa, x1 = 0.0168	969.7	–
424.03 K, 30100 kPa, x1 = 0.0086	–	0.19
424.03 K, 50200 kPa, x1 = 0.0086	–	0.194
424.03 K, 70200 kPa, x1 = 0.0086	–	0.199
424.03 K, 96400 kPa, x1 = 0.0086	–	0.205
448.29 K, 30000 kPa, x1 = 0.0168	–	0.163
448.29 K, 50100 kPa, x1 = 0.0168	–	0.168
448.29 K, 70100 kPa, x1 = 0.0168	–	0.173
448.29 K, 96200 kPa, x1 = 0.0168	–	0.179
448.71 K, 50200 kPa, x1 = 0.0271	–	0.169
448.71 K, 70200 kPa, x1 = 0.0271	–	0.173
448.71 K, 96400 kPa, x1 = 0.0271	–	0.179
448.93 K, 30000 kPa, x1 = 0.0086	–	0.162
448.93 K, 50100 kPa, x1 = 0.0086	–	0.167
448.93 K, 70200 kPa, x1 = 0.0086	–	0.172
448.93 K, 96300 kPa, x1 = 0.0086	–	0.178
449.17 K, 50450 kPa, x1 = 0.0271	923.6	–
449.17 K, 70570 kPa, x1 = 0.0271	934.9	–
449.17 K, 100800 kPa, x1 = 0.0271	950.3	–
449.2 K, 15080 kPa, x1 = 0.0086	900.7	–
449.2 K, 30190 kPa, x1 = 0.0086	909.9	–
449.2 K, 30210 kPa, x1 = 0.0168	910.8	–
449.2 K, 50310 kPa, x1 = 0.0086	921.3	–
449.2 K, 50360 kPa, x1 = 0.0168	922.6	–
449.2 K, 70420 kPa, x1 = 0.0086	931.8	–
449.2 K, 70470 kPa, x1 = 0.0168	933.5	–
449.2 K, 100710 kPa, x1 = 0.0086	946.4	–
449.2 K, 100740 kPa, x1 = 0.0168	948.4	–
